Data on one substance can be found in patent US20160008391A1, “GALACTOSAMINOGALACTAN COMPRISING alpha-1-4 LINKED GALACTOSE AND alpha-1-4 LINKED N-ACETYLGALACTOSAMINE FOR USE IN THE TREATMENT OF AT LEAST ONE INFLAMMATORY DISEASE” (INSTITUT PASTEUR, priority 2013, published 2016).

One data set deals with DSS-induced colitis. The data set can be described thus: Dextran sulfate sodium-induced colitis in WT and p47phox−/− mice. Type of data set: in vivo. The following applies: WT and p47phox−/− mice treated with Anakinra. How it is done: Mice received either regular drinking water (control) or 2.5% dextran sulfate sodium (DSS) in drinking water for 7 days and then allowed to recover by drinking water alone for an additional 7 days. GAG was given intraperitoneally (1 mg/kg) daily for a week. Weight changes were recorded daily, and the day after the 7-days of rest mice were killed and tissues were collected for histology and cytokine analysis. Colonic sections were stained with H&E (Takedatsu 2008). To assess colitis severity, stool and histological scores were used that recently were introduced and proven sensitive to experimental therapy (PMID: 21763243).
Colitis was induced in C57BL/6 wild-type (WT) or p47phox^−/− mice that recapitulate several of the features of the human Chronic Granulomatous Disease (CGD) (Huang et al., 1998; Romani et al., 2008). Colitis is a severe complication of CGD patients, the management of which is a challenge because standard immunosuppressive therapy increases the risk of infection in already immunocompromised hosts (Huang et al., 2004). Colitis was induced with dextran sulfate sodium (DSS 2.5% in drinking water for 7 days and then allowed to recover by drinking water alone for an additional 7 days) and the effect of GAG (1 mg/kg intraperitoneally for a week) on colonic injury was assessed. The day after the 7-day of rest, mice were killed and tissues were collected for histology, RNA and cytokine analysis. Colonic sections were stained with H&E, and histology was scored. Cytokines were measured by enzyme-linked immunoabsorbent assay (ELISA) and real time-polymerase chain reaction (RT-PCR) on colonic tissues.

For data set [1] the following is noted: cited from earlier work.
Data set [2] deals with human PBMCs. The data set can be described thus: Cytokine-driven (IL-1β/IL-23, IL-12/IL-18) T-helper cytokine responses in human PBMCs. It counts as cell-based. The following applies: 7 days, presence vs absence of recombinant human IL-1RA 10 ng/ml. How it is done: (§1) A clinical isolate of Aspergillus fumigatus V05-27, which has been characterized previously was used for stimulations (Netea et al., 2003). Conidia and hyphae were prepared and heat-inactivated (HI) as previously described (Chai et al., 2009a). A concentration of 1×10^7/ml was used in the experiments, unless otherwise indicated. C. albicans, strain ATCC MYA-3573 (UC820) (Gow et al., 2007; Lehrer and Cline, 1969). Candida were heat-killed (HK) at 98° C. for 1 hour and used in a final concentration of 1×10^7/ml. Recombinant human IL-1β, IL-23, IL-12 and IL-18 were purchased from R&D Systems (Minneapolis, Minn., USA) and were used in end concentrations of 100 ng/ml, 50 ng/ml, 10 ng/ml and 50 ng/ml respectively. Recombinant human (rh) IL-1Ra (Amgen, Inc., Thousand Oaks, Calif., USA) was used to antagonize IL-1β signalling at a final concentration of 10 ng/ml. Anti-human IL-1Ra (R&D) was used to block IL-1Ra in a final concentration of 10 μg/ml, and was compared to isotype control. Pattern recognition pathways were inhibited in PBMCs by pre-stimulation for 1 hour with a specific inhibitor. LPS derived from Bartonella quitana was used to block TLR4 (Abdollahi-Roodsaz et al., 2007). B. quitana LPS was extracted and purified as described previously (Hirschfeld et al., 1999). Mouse anti-humanTLR-2 (eBioscience, Halle-Zoersel, Belgium) and control mouse IgG1 (eBioscience) were used at a final concentration of 10 μg/mL. Anti-human integrin β2 (αCR3) and control goat IgG were purchased from R&D systems (Minneapolis, Minn., USA) and used in a final concentration of 10 μg/mL. […]
(§2) Venous blood from healthy volunteers was drawn into 10 ml EDTA tubes after written informed consent, after which PBMCs were isolated as previously described (van de Veerdonk et al., 2009). […] The cells were counted using a particle counter (Beckmann Coulter, Woerden, The Netherlands) and the cell number was adjusted to 5×10^6/ml. […]
(§3) Cytokines were measured using commercially available ELISAs (R&D Systems)(Sanquin, Amsterdam, The Netherlands) according to the protocols supplied by the manufacturer. […]

The subject of data set [3] is human PBMCs. The data set can be described thus: A. fumigatus conidia-induced cytokine production in human PBMCs. It counts as cell-based. To be noted: 7 days, presence vs absence of recombinant human IL-1RA 10 ng/ml. How it is done:
as §1, §2, §3

[4] abbreviates: patients with rheumatoid arthritis.

Regarding “IL-1RA: human recombinant form of interleukin-1 receptor antagonist, commercially produced as anakinra”, in the data set with DSS-induced colitis, the “cytokine gene expression, compared with the effect of GAG” value is on record as “similar”; the “damage score, compared with the effect of GAG” value is “similar”; the “inflammatory pathology, compared with the effect of GAG” value is listed as “similar”. In data set [1] (human, in vivo), the “side effect: diarrhea” value was 7%, the “side effect: flu-like syndrome” value was 6%, the “side effect: infections of upper respiratory tract” value is 13% and the “side effect: nausea” value is reported as 8%. Moreover, in data set [1] (human, in vivo), the “side effect: risk of infections” value is 40%, the “side effect: severe infections” value is listed as 2% and the “side effect: sinusitis” value was 7%. Also, in data set [1] (setting [4]), the progressive joint destruction entry was “slows” and the “symptoms of rheumatoid arthritis” value is on record as “reduces”. In addition, in the data set on human PBMCs [2], the “IFNγ induction by IL-12/IL-18” value is “reduced”, the “IL-17 induction by IL-1/IL-23” value is listed as “reduced” and the “IL-22 induction by IL-1/IL-23” value is listed as “reduced”. Further, in the data set on human PBMCs [3], the “IFNγ induction by Aspergillus conidia” value is reported as “reduced”, the “IL-17 induction by Aspergillus conidia” value is listed as “reduced” and the “IL-22 induction by Aspergillus conidia” value is given as “reduced”.
